This is an account of results in patent EP2653156A1, “Pharmaceutical emulsion composition and use thereof” (College of Pharmacy of Taif University, priority 2012, dated 2013).

The nature of this data set: Particle size distribution of insulin and/or L-arginine solutions by photon correlation spectroscopy (Malvern Zetasizer Nano-ZS). It counts as physicochemical. The conditions noted are these: for Median particle size D(i), Stability in form of particle size / Median particle size D(i): by intensity; for Median particle size D(i), Stability in form of particle size / Median particle size D(i) / Median particle size (n, 0.5) D(n), Stability in form of particle size / Median particle size (n, 0.5) D(n): unit nm; for Median particle size (n, 0.5) D(n), Stability in form of particle size / Median particle size (n, 0.5) D(n): by number. On the procedure: Determination of the particle size distribution of Insulin and/or L-arginine by number as D (n, 0.5) and by intensity as D (i, 0.5) using nanosizer
The particle size distribution of two separate solutions of insulin (1 U/ml) prepared using 0.1 M HCl and L-arginine (1 mg/ml) prepared in distilled water was determined. In addition, a mixture of particles prepared by mixing insulin and L-arginine previous solutions in 1:1 v/v ratio was assessed by photon correlation spectroscopy using a Malvern Zetasizer Nano-ZS series (Malvern Instruments, UK). Collective 10 readings were performed three times on a sample at 25 °C with a detection angle of 173°. The median and standard deviations were calculated by the instrument. The viscosity was determined using a Vibro viscometer (SV-10, A&D Company, Japan) at 25°C.

[1] abbreviates: Table 1 (by number), Room temp for 24 hr.
[2] abbreviates: Table 1 (by number), stability at 50°C for 2 hrs.
The mark [3] stands for this setting: Table 1 (by number), stability at 50 °C for 24 hrs.
[4] abbreviates: Table 2 (by intensity), Room temp for 24 hr.
Where [5] appears, read: Table 2 (by intensity), stability at 50 °C for 2 hrs.
The mark [6] stands for this setting: Table 2 (by intensity), stability at 50°C for 24 hrs.

On to `N=C(N)NCCC[C@H](N)C(=O)O` [L-arginine (1 mg/ml), L-arginine], for which the Pdl by setting is: under setting [1], 0.474; under setting [2], 0.517; under setting [3], 0.31; under setting [4], 0.474; under setting [5], 0.517; under setting [6], 0.31. The “Median particle size D(i), Stability in form of particle size” value (from here on “Median particle size D(i), Stability”) (50 °C for 2 hrs) was 115 nm and the “Median particle size D(i), Stability” value (50°C for 24 hrs) is given as 148 nm. Also, the “Median particle size D(i)” value (Room temp for 24 hr) came out at 122 nm. Also, the “Median particle size (n, 0.5) D(n), Stability in form of particle size” value reads like this: (50°C for 2 hrs) 102 nm; (50 °C for 24 hrs) 93.8 nm. The “Median particle size (n, 0.5) D(n)” value (Room temp for 24 hr) turned out to be 74.8 nm. For the same compound, the particle size (in the aqueous solution) was 100-150 nm.
`N=C(N)NCCC[C@H](N)C(=O)O` [L-arginine (10mg/ml), L-arginine]: the Pdl is 0.442 under setting [1]; 0.522 under setting [2]; 0.436 under setting [3]; 0.442 under setting [4]; 0.522 under setting [5]; 0.436 under setting [6]. In addition, the “Median particle size D(i), Stability” value (50 °C for 2 hrs) was determined as 174 nm and the “Median particle size D(i), Stability” value (50°C for 24 hrs) is on record as 126 nm. Besides, the “Median particle size D(i)” value (Room temp for 24 hr) worked out at 129 nm. The “Median particle size (n, 0.5) D(n), Stability in form of particle size” value reads like this: (50°C for 2 hrs) 85.8 nm; (50 °C for 24 hrs) 80.6 nm. Further, under “Room temp for 24 hr”, the “Median particle size (n, 0.5) D(n)” value is recorded as 109 nm.
